# ChEMBL document CHEMBL2417537, “Synthesis and antifungal activity of terpenyl-1,4-naphthoquinone and 1,4-anthracenedione derivatives” (Eur J Med Chem, 2013)
# Calls of active or inactive are those of the source. The rule behind the calls is not given here.
# What was measured:
# Candida albicans [1] = experiment: Antifungal activity against Candida albicans ATCC 90028 after 24 hrs; assay type: functional; details: ATCC 90028, 24 h
# Candida tropicalis [2] = experiment: Antifungal activity against Candida tropicalis ATCC 200956 after 24 hrs; assay type: functional; details: ATCC 200956, 24 h
# Vero = experiment: Cytotoxicity against african green monkey Vero cells after 48 hrs by MTT assay; assay type: cell-based; details: Chlorocebus sabaeus
# Fusarium oxysporum = experiment: Antifungal activity against Fusarium oxysporum ATCC 48112 after 48 hrs; assay type: functional; details: ATCC 48112, 48 h
# Aspergillus niger = experiment: Antifungal activity against Aspergillus niger ATCC 16404 after 48 hrs; assay type: functional; details: ATCC 16404, 48 h
# Candida parapsilosis [3] = experiment: Antifungal activity against Candida parapsilosis ATCC 22019 after 24 hrs; assay type: functional; details: ATCC 22019, 24 h
# Pichia kudriavzevii = experiment: Antifungal activity against Candida krusei ATCC 6258 after 24 hrs; assay type: functional; details: ATCC 6258, 24 h
# Aspergillus fumigatus = experiment: Antifungal activity against Aspergillus fumigatus ATCC 204305 after 48 hrs; assay type: functional; details: ATCC 204305, 48 h
# Clavispora lusitaniae = experiment: Antifungal activity against Candida lusitaniae ATCC 200951 after 24 hrs; assay type: functional; details: ATCC 200951, 24 h
# Candida tropicalis [4] = experiment: Antifungal activity against Candida tropicalis CECT 11901 after 24 hrs; details: CECT 11901, 24 h
# Aspergillus terreus = experiment: Antifungal activity against Aspergillus terreus CDC 317 after 48 hrs; assay type: functional; details: CDC 317, 48 h
# [5] = tested on: Trichophyton mentagrophytes; experiment: Antifungal activity against Trichophyton mentagrophytes ATCC 24198 after 6 days; assay type: functional; details: ATCC 24198, 144 h
# Aspergillus flavus = experiment: Antifungal activity against Aspergillus flavus ATCC 204304 after 48 hrs; assay type: functional; details: ATCC 204304, 48 h
# Candida albicans [6] = experiment: Antifungal activity against Candida albicans ATCC 10231 after 24 hrs; assay type: functional; details: ATCC 10231, 24 h
# Trichophyton rubrum = experiment: Antifungal activity against Trichophyton rubrum ATCC 28188 after 6 days; assay type: functional; details: ATCC 28188, 144 h
# [7] = Selectivity index, ratio of IC50 for african green monkey Vero cells to IC50 for Aspergillus fumigatus ATCC 204305; assay type: toxicity, cell-based; details: read-out: Ratio IC50
# [8] = Selectivity index, ratio of IC50 for african green monkey Vero cells to IC50 for Candida lusitaniae ATCC 200951; assay type: toxicity, cell-based; details: read-out: Ratio IC50
# [9] = Selectivity index, ratio of IC50 for african green monkey Vero cells to IC50 for Trichophyton mentagrophytes ATCC 24198; assay type: toxicity, cell-based; details: read-out: Ratio IC50
# [10] = Selectivity index, ratio of IC50 for african green monkey Vero cells to IC50 for Trichophyton rubrum ATCC 28188; assay type: toxicity, cell-based; details: read-out: Ratio IC50
# [11] = Selectivity index, ratio of IC50 for african green monkey Vero cells to IC50 for Candida krusei ATCC 6258; assay type: toxicity, cell-based; details: read-out: Ratio IC50
# Candida parapsilosis [12] = experiment: Antifungal activity against Candida parapsilosis ATCC 22019 at 0.5 MIC up to 24 hrs by time kill study; assay type: functional, organism-based
# Candida parapsilosis [13] = experiment: Antifungal activity against Candida parapsilosis ATCC 22019 at > MIC up to 24 hrs by time kill study; assay type: functional, organism-based
SMILES,MIC90 (Candida albicans [1]) [µg/mL],MIC90 (Candida tropicalis [2]) [µg/mL],MIC90 (Fusarium oxysporum) [µg/mL],MIC90 (Aspergillus niger) [µg/mL],MIC90 (Candida parapsilosis [3]) [µg/mL],MIC90 (Pichia kudriavzevii) [µg/mL],MIC90 (Aspergillus fumigatus) [µg/mL],MIC90 (Clavispora lusitaniae) [µg/mL],MIC90 (Candida tropicalis [4]) [µg/mL],MIC90 (Aspergillus terreus) [µg/mL],MIC90 [5] [µg/mL],MIC90 (Aspergillus flavus) [µg/mL],MIC90 (Candida albicans [6]) [µg/mL],MIC90 (Trichophyton rubrum) [µg/mL],IC50 (Vero) [µg/mL],also measured
Cc1ccc2[nH]c3c(c2c1)C(=O)c1ccc(CCCC(C)C)cc1C3=O,> 32,> 32,> 32,> 32,> 32,> 32,> 32,> 32,> 32,> 32,> 32,> 32,> 32,> 32,55.2,–
COc1ccc(SC2=CC(=O)c3ccc(CCCC(C)C)cc3C2=O)cc1,> 32,> 32,> 32,> 32,> 32,> 32,> 32,> 32,> 32,> 32,> 32,> 32,> 32,> 32,–,–
CC(C)CCCc1ccc2c(c1)C(=O)C(Br)=C(Br)C2=O,> 32,> 32,> 32,> 32,> 32,> 32,> 32,> 32,> 32,> 32,> 32,32,> 32,32,≤ 25,–
COc1cc(NC2=C(Cl)C(=O)c3cc4c(cc3C2=O)C(C)(C)CCC4)cc(OC)c1OC,> 32,> 32,> 32,> 32,> 32,> 32,> 32,> 32,> 32,> 32,> 32,> 32,> 32,> 32,≤ 25,–
CN(C/C=C/C#CC(C)(C)C)Cc1cccc2ccccc12 [TERBINAFINE],–,–,–,–,–,–,–,–,–,–,0.03,–,–,0.08,30.9,selectivity ratio [10]: 386
Cc1cc(C)c2c3c(oc2c1)C(=O)c1cc(CCCC(C)C)ccc1C3=O,> 32,> 32,> 32,> 32,> 32,> 32,> 32,> 32,> 32,> 32,> 32,> 32,> 32,> 32,35.4,–
CC(C)=CCCc1ccc2c(c1)C(=O)C(Cl)=C(NCc1ccccc1)C2=O,> 32,> 32,> 32,> 32,> 32,> 32,> 32,> 32,> 32,> 32,> 32,> 32,> 32,22.6,55.9,–
COc1ccc(NC2=C(Cl)C(=O)c3cc(CCCC(C)C)ccc3C2=O)cc1,> 32,32,> 32,> 32,> 32,> 32,> 32,16,> 32,> 32,5,> 32,> 32,12.7,35.6,selectivity ratio [8]: 2.2; selectivity ratio [9]: 7.1
CCNC1=CC(=O)c2cc3c(cc2C1=O)C(C)(C)CCC3,> 32,> 32,> 32,> 32,> 32,> 32,> 32,> 32,> 32,> 32,5,> 32,> 32,3.2,35.6,selectivity ratio [10]: 11.1

# Now from value to compound, other results behind:
MIC90 (Candida albicans [1]) [µg/mL],MIC90 (Candida tropicalis [2]) [µg/mL],MIC90 (Fusarium oxysporum) [µg/mL],MIC90 (Aspergillus niger) [µg/mL],MIC90 (Candida parapsilosis [3]) [µg/mL],MIC90 (Pichia kudriavzevii) [µg/mL],MIC90 (Aspergillus fumigatus) [µg/mL],MIC90 (Clavispora lusitaniae) [µg/mL],MIC90 (Candida tropicalis [4]) [µg/mL],MIC90 (Aspergillus terreus) [µg/mL],MIC90 [5] [µg/mL],MIC90 (Aspergillus flavus) [µg/mL],MIC90 (Candida albicans [6]) [µg/mL],MIC90 (Trichophyton rubrum) [µg/mL],SMILES,IC50 (Vero) [µg/mL],also measured
> 32,> 32,> 32,> 32,> 32,> 32,> 32,> 32,> 32,> 32,> 32,> 32,> 32,> 32,CC(C)=CCCc1ccc2c(c1)C(=O)C=CC2=O,109,–
> 32,> 32,> 32,> 32,> 32,> 32,> 32,> 32,> 32,> 32,> 32,> 32,> 32,> 32,Cc1c2c(nc3ccccc13)C(=O)c1cc(CCCC(C)C)ccc1C2=O,115,–
> 32,> 32,> 32,> 32,> 32,> 32,> 32,> 32,> 32,> 32,> 32,> 32,> 32,> 32,COc1ccc(NC2=C(Br)C(=O)c3cc(CCCC(C)C)ccc3C2=O)cc1,58.5,–
> 32,> 32,> 32,> 32,> 32,> 32,> 32,> 32,> 32,> 32,> 32,> 32,> 32,> 32,CCOC1=C(OCC)C(=O)c2cc3c(cc2C1=O)CCCC3(C)C,≤ 25,–
> 32,> 32,> 32,> 32,> 32,> 32,8,20.2,> 32,> 32,4,> 32,> 32,4,CC(C)CCCc1ccc2c(c1)C(=O)C(Cl)=C(Cl)C2=O,≥ 200,selectivity ratio [7]: > 25; selectivity ratio [8]: > 9.9; selectivity ratio [9]: > 50; selectivity ratio [10]: > 50
16,8,16,> 32,4,2,16,5,12.7,> 32,3.2,> 32,20.2,5,CC1(C)CCCc2cc3c(cc21)C(=O)C=C(Cl)C3=O,109,selectivity ratio [11]: > 12.5; Activity (Candida parapsilosis [12]): inactive; selectivity ratio [7]: > 1.6; Activity (Candida parapsilosis [13]): Active; selectivity ratio [9]: > 7.8
8,4,32,> 32,8,2.8,22.6,2.2,6.4,> 32,3.2,> 32,4,5,CC(=O)NC1=C(Cl)C(=O)c2cc3c(cc2C1=O)CCCC3(C)C,22.3,selectivity ratio [7]: 0.9; selectivity ratio [8]: 10.1; selectivity ratio [9]: 7.1
> 32,11.3,32,> 32,4,2.4,11.3,3.2,> 32,> 32,6.4,> 32,> 32,4,CC(C)=CCCc1ccc2c(c1)C(=O)C(Cl)=CC2=O,26.1,selectivity ratio [11]: 10.9; selectivity ratio [7]: 1.4; selectivity ratio [10]: 6.5
22.6,5,> 32,> 32,4.8,4,> 32,5,12.7,> 32,1.3,> 32,18,4,CC1(C)CCCc2cc3c(cc21)C(=O)C=CC3=O,8.6,selectivity ratio [11]: 2.2; selectivity ratio [9]: 6.6
–,–,–,–,0.25,0.5,0.2,–,–,–,–,0.1,–,–,CCC(C)n1ncn(-c2ccc(N3CCN(c4ccc(OCC5COC(Cn6cncn6)(c6ccc(Cl)cc6Cl)O5)cc4)CC3)cc2)c1=O (stereo not given) [ITRACONAZOLE],> 50,selectivity ratio [11]: > 100; Activity (Candida parapsilosis [13]): Active
